Test results taken from patent US11369650B2, “Methods for reversing multiple resistance in animal cells” (priority 2004, dated 2022).

Key:
U373 cells = assay: Oncolysis of U373 cells by dl520 with Irinotecan and Trichostatin A, crystal violet; format: cell-based; details: U373, 2 μM Irinotecan
Description: 200,000 U373 cells were plated in a 6 well plate. After 24 hours either 2 μM Irinotecan or only 1 μM Trichostatin A or 1 μM Irinotecan+0.5 μM Trichostatin were added to the medium. After 24 hours of incubation the cells were infected with 10, 20 and 30 pfu/cell dl520. After 3-5 days the analysis was performed using crystal violet staining. The assays were performed in duplicate.
The further 6 well plates 2, 3 and 4 depicted in FIG. 22, herein also referred to as panels 2, 3 and 4, were basically treated in accordance with this scheme. The individual wells were inoculated with U373 cells as previously described and the cells cultivated therein. The wells were inoculated with 10, 20 or 30 pfu/cell dl520 in duplicate, whereby the difference between the three 6 well plates resided in the kind of cytostatics used. In panel 2 2 μM Irinotecan, in panel 3 […] and in panel 4 1 μM Irinotecan and 0.5 μM Trichostatin A was added to the individual plates.

U373 tumour cells [1] = assay: Southern blot of dl520 replication after Irinotecan; format: cell-based; details: U373, 5 μM Irinotecan 24 h before 10 pfu/cell dl520
Description: In order to determine the effect of Irinotecan on adenoviral replication 10^6 U373 tumour cells were plated in 10 cm^2 Petri dishes. In a first reaction 5 μM Irinotecan was added after 24 hours. After another 24 hours the cells were infected with 10 pfu/cell dl520. After incubation of 3 days without Irinotecan DNA was isolated in accordance with the procedure described in example 10.
In a parallel reaction the thus prepared U373-cells were not pre-incubated with Irinotecan. After 48 hours of cultivating the cells without Irinotecan, they were infected with 10 pfu/cell dl520 and subsequently incubated without Irinotecan for another 3 days. DNA was isolated as described above.
Subsequently […] were digested with restriction enzyme Kpn I and a Southern Blot analysis performed. A part of the adenoviral genome (position: 22734-24235) generated by means of PCR was used as a probe.

[2] = system: Coxsackievirus-adenovirus-receptor (CAR) on U373 cells; assay: FACS analysis of CAR expression; format: cell-based; details: U373, 1 μM Trichostatin, 24 hours
Description: 200,000 U373 cells were plated in 6 well plates. After 24 hours the cells were cultivated with 1 μM Trichostatin for 24 hours. After another 24 hours the cells were isolated. Subsequently, analysis of CAR expression was performed according to a standard protocol using Facs-analysis and the primary antibody anti-CAR clone RmcB from the company Upstate, and a rabbit-anti-mouse FITC as secondary antibody (company DAKO).

U373 tumour cells [3] = assay: Southern blot of dl520 replication after Trichostatin A; format: cell-based; details: U373, 0.25, 0.5 and 0.75 μM Trichostatin A, 10 pfu/cell dl520
Description: In order to test the effect of Trichostatin A on adenoviral replication, 10^6 U373 tumour cells were plated in 10 cm^2 Petri dishes. After 24 hours 0.25, 0.5 and 0.75 μM Trichostatin A was added. After another 24 hours the cells were infected with 10 pfu/cell dl520.
After 3 days of incubation in medium without Trichostatin DNA was isolated. Subsequently 2 μg DNA were digested with restriction enzyme Kpn I and a Southern Blot analysis performed. A part of the adenoviral genome (position: 22734-24235) generated by means of PCR was used as a probe.

HeLa cells = assay: Oncolytic assay with daunorubicine and dl520, crystal violet; format: cell-based; details: 40 ng/ml
Description: (§1) In the practising of the oncolytic assays the following procedure was followed: 200,000 cells (HeLa and U2OS, respectively) were plated into each well of a 6 well plate. On the next day 40 ng/ml (final concentration) of daunorubicine were added. After 3 hours of incubation the cells were infected with 10 and 30 pfu dl520/cell, respectively. Subsequently, the cells were incubated in cytostatic free medium. After 3-5 days the cells were stained using crystal violet.

U2OS cells = assay: as above; format: cell-based, human; details: 40 ng/ml
Description: as §1

In the case of CCc1c2c(nc3ccc(OC(=O)N4CCC(N5CCCCC5)CC4)cc13)-c1cc3c(c(=O)n1C2)COC(=O)[C@]3(O)CC [Irinotecan], the “dl520 titer at which the cells were lysed” value (U373 cells) is reported as 30 pfu/cell and the “adenoviral (dl520) replication compared to untreated control” value (U373 tumour cells [1]) is reported as “significantly increased”.
For CC(/C=C/C(=O)NO)=C\[C@@H](C)C(=O)c1ccc(N(C)C)cc1 [Trichostatin A], the CAR-positive cells [2] was 56.2% and the “viral (dl520) replication compared to untreated controls” value (U373 tumour cells [3]) was “significantly increased”.
COc1cccc2c1C(=O)c1c(O)c3c(c(O)c1C2=O)C[C@@](O)(C(C)=O)C[C@@H]3O[C@H]1C[C@H](N)[C@H](O)[C@H](C)O1 [daunorubicine] was tested, and the “effect of daunorubicine on replication of dl520” value (HeLa cells) was “induces the replication of dl520” and the “effect of daunorubicine on replication of dl520” value (U2OS cells) was “induces the replication of dl520”.
